Test results: the supplement of paper PMC12282887
± gives the standard deviation of the averaged measurements.

Key:
Assay in all cases: fitness (OD AUC treated / untreated) (fraction); higher = more growth
[1] = tested on: E. coli BW25113 DmicF + micF
Description: (§1)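 MIC curves of ciprofloxacin or amoxicillin, with or without 55.5 µg/ml caffeine, against E. coli BW25113 wild type, deletion mutants (ΔmicF, ΔompF, Δrob) and complemented strains. Assays ran in LB at 37°C in 96/384-well plates. Fitness is the OD600 AUC over 8 h divided by the no-drug control; 3-4 biological replicates.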

[2] = tested on: E. coli BW25113 WT
Description: as §1

[3] = tested on: E. coli BW25113 Drob
Description: as §1

[4] = tested on: E. coli BW25113 DmicF
Description: as §1

[5] = tested on: E. coli BW25113 DompF + ompF
Description: as §1

O=C(O)c1cn(C2CC2)c2cc(N3CCNCC3)c(F)cc2c1=O [Ciprofloxacin]
fitness
Settings	[1]	[2]	[3]	[4]	[5]
antibiotic concentration 0.00227 µg/ml, caffeine concentration 0 µg/ml	1.05 ± 0.044	1.07 ± 0.11	1.07 ± 0.043	0.916 ± 0.041	–
antibiotic concentration 0.00227 µg/ml, caffeine concentration 55.4857 µg/ml	–	0.995 ± 0.045	0.883 ± 0.052	0.927 ± 0.03	–
antibiotic concentration 0.00455 µg/ml, caffeine concentration 0 µg/ml	1.01 ± 0.043	0.987 ± 0.062	0.845 ± 0.043	0.793 ± 0.023	–
antibiotic concentration 0.00455 µg/ml, caffeine concentration 55.4857 µg/ml	–	0.986 ± 0.067	0.887 ± 0.021	0.867 ± 0.033	–
antibiotic concentration 0.00682 µg/ml, caffeine concentration 0 µg/ml	0.985 ± 0.027	0.99 ± 0.075	0.754 ± 0.044	0.625 ± 0.049	–
antibiotic concentration 0.00682 µg/ml, caffeine concentration 55.4857 µg/ml	0.99 ± 0.027	1 ± 0.084	0.733 ± 0.062	0.684 ± 0.07	–
antibiotic concentration 0.00909 µg/ml, caffeine concentration 0 µg/ml	0.876 ± 0.037	0.891 ± 0.081	0.641 ± 0.057	0.435 ± 0.12	–
antibiotic concentration 0.00909 µg/ml, caffeine concentration 55.4857 µg/ml	0.941 ± 0.051	0.953 ± 0.031	0.619 ± 0.063	–	–
antibiotic concentration 0.01136 µg/ml, caffeine concentration 0 µg/ml	0.679 ± 0.0072	0.766 ± 0.15	0.42 ± 0.025	0.232 ± 0.12	–
antibiotic concentration 0.01136 µg/ml, caffeine concentration 55.4857 µg/ml	0.798 ± 0.041	0.938 ± 0.056	0.383 ± 0.061	–	–
antibiotic concentration 0.01364 µg/ml, caffeine concentration 0 µg/ml	0.381 ± 0.018	0.58 ± 0.094	0.266 ± 0.056	0.153 ± 0.11	0.748 ± 0.04
antibiotic concentration 0.01364 µg/ml, caffeine concentration 55.4857 µg/ml	0.571 ± 0.053	0.82 ± 0.021	0.199 ± 0.013	–	0.89
antibiotic concentration 0.01591 µg/ml, caffeine concentration 0 µg/ml	0.154 ± 0.014	0.448 ± 0.045	0.143 ± 0.035	0.0556 ± 0.058	–
antibiotic concentration 0.01591 µg/ml, caffeine concentration 55.4857 µg/ml	0.329 ± 0.049	0.728 ± 0.083	0.114 ± 0.013	–	–
antibiotic concentration 0.01818 µg/ml, caffeine concentration 0 µg/ml	0.0704 ± 0.0051	0.304 ± 0.065	0.0644 ± 0.033	0.017 ± 0.029	–
antibiotic concentration 0.01818 µg/ml, caffeine concentration 55.4857 µg/ml	0.207 ± 0.015	0.607 ± 0.037	0.0408 ± 0.019	–	–
antibiotic concentration 0.02045 µg/ml, caffeine concentration 0 µg/ml	0.0466 ± 0.0021	0.192 ± 0.038	0.0847 ± 0.021	0.0088 ± 0.015	0.541 ± 0.028
antibiotic concentration 0.02045 µg/ml, caffeine concentration 55.4857 µg/ml	0.119 ± 0.012	0.482 ± 0.055	0.0665 ± 0.016	–	0.771 ± 0.049
antibiotic concentration 0.02273 µg/ml, caffeine concentration 0 µg/ml	0.045 ± 0.0053	0.101 ± 0.078	0.0851 ± 0.021	0.00491 ± 0.0085	–
antibiotic concentration 0.02273 µg/ml, caffeine concentration 55.4857 µg/ml	0.0506 ± 0.013	0.374 ± 0.08	0.0576 ± 0.017	0.00595 ± 0.0096	–
antibiotic concentration 0.025 µg/ml, caffeine concentration 0 µg/ml	0.0379 ± 0.0088	0.0921 ± 0.094	0.0782 ± 0.018	0	–
antibiotic concentration 0.025 µg/ml, caffeine concentration 55.4857 µg/ml	0.0446 ± 0.0058	0.276 ± 0.056	0.0414 ± 0.015	0	–
antibiotic concentration 0.02727 µg/ml, caffeine concentration 0 µg/ml	–	–	–	–	0.238 ± 0.0069
antibiotic concentration 0.02727 µg/ml, caffeine concentration 55.4857 µg/ml	–	–	–	–	0.558 ± 0.019
antibiotic concentration 0.03409 µg/ml, caffeine concentration 0 µg/ml	–	–	–	–	0.0975 ± 0.007
antibiotic concentration 0.03409 µg/ml, caffeine concentration 55.4857 µg/ml	–	–	–	–	0.359 ± 0.019
antibiotic concentration 0.04091 µg/ml, caffeine concentration 0 µg/ml	–	–	–	–	0.039 ± 0.0035
antibiotic concentration 0.04091 µg/ml, caffeine concentration 55.4857 µg/ml	–	–	–	–	0.194 ± 0.012
antibiotic concentration 0.04773 µg/ml, caffeine concentration 0 µg/ml	–	–	–	–	0.032 ± 0.0039
antibiotic concentration 0.04773 µg/ml, caffeine concentration 55.4857 µg/ml	–	–	–	–	0.102 ± 0.02
antibiotic concentration 0.05455 µg/ml, caffeine concentration 0 µg/ml	–	–	–	–	0.0267 ± 0.004
antibiotic concentration 0.05455 µg/ml, caffeine concentration 55.4857 µg/ml	–	–	–	–	0.0511 ± 0.0048
antibiotic concentration 0.06136 µg/ml, caffeine concentration 0 µg/ml	–	–	–	–	0.0262 ± 0.0018
antibiotic concentration 0.06136 µg/ml, caffeine concentration 55.4857 µg/ml	–	–	–	–	0.0404 ± 0.0022
antibiotic concentration 0.06818 µg/ml, caffeine concentration 0 µg/ml	–	–	–	–	0.0324 ± 0.0067
antibiotic concentration 0.06818 µg/ml, caffeine concentration 55.4857 µg/ml	–	–	–	–	0.0403 ± 0.0019
antibiotic concentration 0.075 µg/ml, caffeine concentration 0 µg/ml	–	–	–	–	0.0312 ± 0.0034
antibiotic concentration 0.075 µg/ml, caffeine concentration 55.4857 µg/ml	–	–	–	–	0.0317 ± 0.0057
